Converted amounts (≈) assume the structure as drawn. Structures can show the parent of a compound that is named as a salt.
Legend:
[1] = Gravimetric vapor sorption (GVS); type: physicochemical; settings: 25° C.
Experimental: Gravimetric Vapor Sorption (GVS): Gravimetric vapor sorption (GVS) data are collected using either i) a SGA-100 Water Vapor Sorption Analyzer from VTI Corporation. Sample sizes are typically 5-10 mg. A moisture adsorption/desorption isotherm is recorded by subjecting samples to a series of relative humidity (RH) steps at a constant temperature of 25° C.; or ii) a Hiden IGASorp moisture sorption analyser running CFRSorp software, IGA Systems Software V3.00.23 and IGASorp Controller Version 1.10. Sample sizes are typically 10 mg. A moisture adsorption/desorption isotherm iserformed in the following way: Samples are loaded/unloaded at typical room humidity and temperature (40% RH, 25° C.) and analysed afterwards by XRPD. The isotherm run is two complete cycles. Each cycle begins at 40% RH and using 10% RH intervals goes to 90% RH then Dry then 40% RH.

physchem = settings: water
Experimental: Solubility: The water solubility of the Tartrate and Mono-HCl Salt was measured at ambient temperature.

## C[C@@H]1CN(C(=O)CN2CC(C)(C)OC[C@H]2C(=O)Nc2cc(Cl)cc3c2[nH]c2cnccc23)C[C@H](C)O1 [Malonate Salt, (S)—N-(6-chloro-9H-pyrido[3,4-b]indol-8-yl)-4-(2-((2S,6R)-2,6-dimethylmorpholino)-2-oxoethyl)-6,6-dimethylmorpholine-3-carboxamide malonate]
[1]; 40-90% RH
  moisture uptake from 40-90% RH: 1.5 wt %

## C[C@@H]1CN(C(=O)CN2CC(C)(C)OC[C@H]2C(=O)Nc2cc(Cl)cc3c2[nH]c2cnccc23)C[C@H](C)O1 [Mono-Hydrochloride Salt, (S)—N-(6-chloro-9H-pyrido[3,4-b]indol-8-yl)-4-(2-((2S,6R)-2,6-dimethylmorpholino)-2-oxoethyl)-6,6-dimethylmorpholine-3-carboxamide mono-hydrochloride]
[1]; mono-hydrochloride
  moisture uptake at 70% RH: 0.23%
  moisture uptake at 90% RH: 1.7%

## C[C@@H]1CN(C(=O)CN2CC(C)(C)OC[C@H]2C(=O)Nc2cc(Cl)cc3c2[nH]c2cnccc23)C[C@H](C)O1 [Tartrate Salt, (S)—N-(6-chloro-9H-pyrido[3,4-b]indol-8-yl)-4-(2-((2S,6R)-2,6-dimethylmorpholino)-2-oxoethyl)-6,6-dimethylmorpholine-3-carboxamide hemi-L-tartrate hydrate]
[1]
  moisture uptake at 70% RH: 1.3%
  moisture uptake at 90% RH: 2.4%
[1]; vapor sorption profile
  hygroscopicity: relatively non-hygroscopic

## C[C@@H]1CN(C(=O)CN2CC(C)(C)OC[C@H]2C(=O)Nc2cc(Cl)cc3c2[nH]c2cnccc23)C[C@H](C)O1 [free base, (S)—N-(6-chloro-9H-pyrido[3,4-b]indol-8-yl)-4-(2-((2S,6R)-2,6-dimethylmorpholino)-2-oxoethyl)-6,6-dimethylmorpholine-3-carboxamide]
physchem
  solubility: ~10 µg/mL (≈ 19.5 µM)
